The values that follow come from US11814367B2, “Inhibitors of glycogen synthase 1 (GYS1) and methods of use thereof” (Maze Therapeutics, Inc., priority 2021, dated 2023).

For this test, the target named is hGYS1 enzyme (recombinant hGYS1/GN1 protein) (Homo sapiens (Human), UniProt P13807). In words: GYS1 coupled enzyme assay (PK/LDH). The test is classed as biochemical. The conditions noted are these: hGYS1/GN1 50 nM, UDP-Glucose 0.8 mM, G6P 1 mM; geometric mean of at least 2 runs.
Sequence of hGYS1 enzyme (recombinant hGYS1/GN1 protein) (P13807 whole entry): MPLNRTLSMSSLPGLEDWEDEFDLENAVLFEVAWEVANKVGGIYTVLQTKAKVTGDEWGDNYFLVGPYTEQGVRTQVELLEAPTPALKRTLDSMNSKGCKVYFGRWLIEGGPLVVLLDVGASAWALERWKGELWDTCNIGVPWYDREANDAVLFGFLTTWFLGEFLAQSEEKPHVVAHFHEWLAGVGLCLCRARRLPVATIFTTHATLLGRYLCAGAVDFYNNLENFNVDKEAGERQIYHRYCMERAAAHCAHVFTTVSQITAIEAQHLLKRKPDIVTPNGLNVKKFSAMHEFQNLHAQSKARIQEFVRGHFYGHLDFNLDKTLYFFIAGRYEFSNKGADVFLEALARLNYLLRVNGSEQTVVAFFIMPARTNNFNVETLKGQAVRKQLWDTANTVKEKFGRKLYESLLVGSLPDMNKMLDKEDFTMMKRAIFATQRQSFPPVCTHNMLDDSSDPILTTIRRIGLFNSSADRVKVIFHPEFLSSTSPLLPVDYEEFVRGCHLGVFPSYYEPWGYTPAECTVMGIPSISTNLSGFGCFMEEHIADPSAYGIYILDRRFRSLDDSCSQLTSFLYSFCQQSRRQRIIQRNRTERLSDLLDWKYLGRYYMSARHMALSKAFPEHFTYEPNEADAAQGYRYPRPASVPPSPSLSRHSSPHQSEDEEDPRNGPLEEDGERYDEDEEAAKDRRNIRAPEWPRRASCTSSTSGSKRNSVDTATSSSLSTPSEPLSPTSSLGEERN
Sequence of hGYS1 enzyme (recombinant hGYS1/GN1 protein) (P46976 whole entry partner): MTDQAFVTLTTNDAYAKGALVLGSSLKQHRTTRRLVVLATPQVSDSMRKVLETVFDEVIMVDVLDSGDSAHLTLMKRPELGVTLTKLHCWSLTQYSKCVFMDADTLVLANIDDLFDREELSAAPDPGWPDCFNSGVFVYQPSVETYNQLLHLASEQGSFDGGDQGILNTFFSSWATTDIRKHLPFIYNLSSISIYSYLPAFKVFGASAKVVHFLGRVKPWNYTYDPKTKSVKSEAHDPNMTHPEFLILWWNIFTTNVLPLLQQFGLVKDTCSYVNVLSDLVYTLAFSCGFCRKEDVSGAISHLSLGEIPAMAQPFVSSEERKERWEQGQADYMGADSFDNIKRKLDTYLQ
In general, IC50 refers to the midpoint of a concentration-inhibition curve. As for `CC(=O)N1CCO[C@@H](C)[C@@H]1C(=O)N1C[C@H](F)C[C@H]1C(=O)N[C@@H](c1ccccc1)c1ccc(C(C)C)cc1` [Compound 159, (2S,4R)-1-[(2S,3R)-4-acetyl-2-methylmorpholine-3-carbonyl]-4-fluoro-N-[(S)-phenyl[4-(propan-2-yl)phenyl]methyl]pyrrolidine-2-carboxamide], the half-inhibitory concentration (IC50) is 740 nM.
Consider `COC1(CC(=O)N2C[C@H](F)C[C@H]2C(=O)N[C@@H](c2ccccc2)c2ccc(C(C)C)cc2)CN(C(C)=O)C1` [Compound 161, (2S,4R)-1-[2-(1-acetyl-3-methoxyazetidin-3-yl)acetyl]-4-fluoro-N-[(S)-phenyl[4-(propan-2-yl)phenyl]methyl]pyrrolidine-2-carboxamide], for which the IC50 was found to be 374 nM.
In the case of `CC(=O)N1CC2(CC(C(=O)N3C[C@H](F)C[C@H]3C(=O)N[C@@H](c3ccccc3)c3ccc(C(C)C)cc3)CO2)C1` (stereo partly drawn) [Compound 164, (2S,4R)-1-{2-acetyl-5-oxa-2-azaspiro[3.4]octane-7-carbonyl}-4-fluoro-N-[(S)-phenyl[4-(propan-2-yl)phenyl]methyl]pyrrolidine-2-carboxamide], the IC50 came out at 467 nM.
`CC(=O)N1C[C@@H]2[C@@H](C(=O)N3C[C@H](F)C[C@H]3C(=O)N[C@@H](c3ccccc3)c3ccc(C(C)C)cc3)CO[C@@H]2C1` [Compound 165, (2S,4R)-1-[(3R,3aS,6aS)-5-acetyl-hexahydro-2H-furo[2,3-c]pyrrole-3-carbonyl]-4-fluoro-N-[(S)-phenyl[4-(propan-2-yl)phenyl]methyl]pyrrolidine-2-carboxamide]: the IC50 was 361 nM.
As for `CC(=O)N1CCCC(C)(C(=O)N2C[C@H](F)C[C@H]2C(=O)N[C@@H](c2ccccc2)c2ccc(C(C)C)cc2)C1` (stereo partly drawn) [Compound 168, (2S,4R)-1-(1-acetyl-3-methylpiperidine-3-carbonyl)-4-fluoro-N-[(S)-phenyl[4-(propan-2-yl)phenyl]methyl]pyrrolidine-2-carboxamide], the IC50 stood at 439 nM.
For `CC(=O)N1CC[C@@H](C)[C@H](C(=O)N2C[C@H](F)C[C@H]2C(=O)N[C@@H](c2ccccc2)c2ccc(C(C)C)cc2)C1` [Compound 170, (2S,4R)-1-[(3S,4R)-1-acetyl-4-methylpiperidine-3-carbonyl]-4-fluoro-N-[(S)-phenyl[4-(propan-2-yl)phenyl]methyl]pyrrolidine-2-carboxamide] the value was 306 nM; for `CC(=O)N1C[C@H]2CC[C@@H](C1)[C@@H]2C(=O)N1C[C@H](F)C[C@H]1C(=O)N[C@@H](c1ccccc1)c1ccc(C(C)C)cc1` [Compound 173, (2S,4R)-1-[(1R,5S,8S)-3-acetyl-3-azabicyclo[3.2.1]octane-8-carbonyl]-4-fluoro-N-[(S)-phenyl[4-(propan-2-yl)phenyl]methyl]pyrrolidine-2-carboxamide], 844 nM; for `CC(=O)N1C2CCC1CC(C(=O)N1C[C@H](F)C[C@H]1C(=O)N[C@@H](c1ccccc1)c1ccc(C(C)C)cc1)C2` (stereo partly drawn) [Compound 175, (2S,4R)-1-{8-acetyl-8-azabicyclo[3.2.1]octane-3-carbonyl}-4-fluoro-N-[(S)-phenyl[4-(propan-2-yl)phenyl]methyl]pyrrolidine-2-carboxamide], 582 nM.
Take `CC(=O)N1C[C@@H]2CC[C@H]1C(C(=O)N1C[C@H](F)C[C@H]1C(=O)N[C@@H](c1ccccc1)c1ccc(C(C)C)cc1)C2` (stereo partly drawn) [Compound 176, (2S,4R)-1-[(1S,4R)-2-acetyl-2-azabicyclo[2.2.2]octane-6-carbonyl]-4-fluoro-N-[(S)-phenyl[4-(propan-2-yl)phenyl]methyl]pyrrolidine-2-carboxamide]: the IC50 is 410 nM.
For `CC(=O)N1CCCC(C)(C(=O)N2C[C@H](F)C[C@H]2C(=O)N[C@@H](c2ccccc2)c2ccc(C(C)C)cc2)CC1` (stereo partly drawn) [Compound 181, (2S,4R)-1-(1-acetyl-4-methylazepane-4-carbonyl)-4-fluoro-N-[(S)-phenyl[4-(propan-2-yl)phenyl]methyl]pyrrolidine-2-carboxamide] the value was 449 nM.
As to `CC(=O)N1CCC2(CCCC2C(=O)N2C[C@H](F)C[C@H]2C(=O)N[C@@H](c2ccccc2)c2ccc(C(C)C)cc2)C1` (stereo partly drawn) [Compound 182, (2S,4R)-1-{2-acetyl-2-azaspiro[4.4]nonane-6-carbonyl}-4-fluoro-N-[(S)-phenyl[4-(propan-2-yl)phenyl]methyl]pyrrolidine-2-carboxamide], the IC50 worked out at 748 nM.
Regarding `CC(C)c1ccc([C@@H](NC(=O)[C@@H]2C[C@@H](F)CN2C(=O)C(O)CO)c2ccccc2)cc1` (stereo partly drawn) [Compound 186, (2S,4R)-1-(2,3-dihydroxypropanoyl)-4-fluoro-N-[(S)-phenyl[4-(propan-2-yl)phenyl]methyl]pyrrolidine-2-carboxamide], the IC50 was found to be 97 nM.
Consider `CC(=O)N1[C@H](C(=O)N[C@@H](c2ccccc2)c2ccc(C(C)C)cc2)C[C@@H]2C[C@@H]21` [Compound 199, (1S,3S,5S)-2-acetyl-N-[(S)-phenyl[4-(propan-2-yl)phenyl]methyl]-2-azabicyclo[3.1.0]hexane-3-carboxamide], for which the IC50 was 1190 nM.
As for `CC(=O)N1[C@@H]2C[C@@H]2C[C@H]1C(=O)N[C@@H](c1ccccc1)c1ccc(C(C)C)cc1` [Compound 200, (1R,3S,5R)-2-acetyl-N-[(S)-phenyl[4-(propan-2-yl)phenyl]methyl]-2-azabicyclo[3.1.0]hexane-3-carboxamide], the IC50 stood at 4420 nM.
On to `CC(C)c1ccc([C@@H](NC(=O)[C@@H]2CCCN2C(=O)CO)c2ccccc2)cc1` [Compound 211, (2S)-1-(2-hydroxyacetyl)-N-[(S)-phenyl[4-(propan-2-yl)phenyl]methyl]pyrrolidine-2-carboxamide], for which the IC50 amounted to 469 nM.
Regarding `CC(=O)NCC(=O)N1CCC[C@H]1C(=O)N[C@@H](c1ccccc1)c1ccc(C(C)C)cc1` [Compound 212, (2S)-1-(2-acetamidoacetyl)-N-[(S)-phenyl[4-(propan-2-yl)phenyl]methyl]pyrrolidine-2-carboxamide], the IC50 was 95 nM.
Then `CC(=O)N1[C@H](C)CC[C@H]1C(=O)N[C@@H](c1ccccc1)c1ccc(C(C)C)cc1` [Compound 215, (2S,5R)-1-acetyl-5-methyl-N-[(S)-phenyl[4-(propan-2-yl)phenyl]methyl]pyrrolidine-2-carboxamide], with 3770 nM.
As to `CC(C)c1ccc([C@@H](NC(=O)[C@@H]2C[C@@H](F)CN2C(=O)Cc2cnoc2)c2ccccc2)cc1` [Compound 230, (2S,4R)-4-fluoro-1-[2-(1,2-oxazol-4-yl)acetyl]-N-[(S)-phenyl[4-(propan-2-yl)phenyl]methyl]pyrrolidine-2-carboxamide], the IC50 amounted to 117 nM.
In the case of `CC(C)c1ccc([C@@H](NC(=O)[C@@H]2C[C@@H](F)CN2C(=O)CN2CCNCC2)c2ccccc2)cc1` [Compound 234, (2S,4R)-4-fluoro-N-[(S)-phenyl[4-(propan-2-yl)phenyl]methyl]-1-[2-(piperazin-1-yl)acetyl]pyrrolidine-2-carboxamide], the IC50 worked out at 695 nM.
As for `CC(=O)N1CCN(CC(=O)N2C[C@H](F)C[C@H]2C(=O)N[C@@H](c2ccccc2)c2ccc(C(C)C)cc2)CC1` [Compound 235, (2S,4R)-1-[2-(4-acetylpiperazin-1-yl)acetyl]-4-fluoro-N-[(S)-phenyl[4-(propan-2-yl)phenyl]methyl]pyrrolidine-2-carboxamide], the IC50 turned out to be 342 nM.
